# Values quoted from earlier work in US20240252671A1, “NEODEGRADER-ANTI-CD33 ANTIBODY CONJUGATES” (priority 2021, published 2024).
# Experiments:
# [1] = test system: AML-193; conditions: stated as known; cited from earlier work
# [2] = test system: Kasumi-6; conditions: stated as known; cited from earlier work
substance,measurement,setting,value
Mylotarg: a CD33-targeting ADC clinically approved for the treatment of AML,sensitivity of cell line to Mylotarg,[1],insensitive
same,sensitivity of cell line to Mylotarg,[2],insensitive
